Data: PubChem BioAssay AID2060492 (Molecular Pharmacology Branch, DTP, NCI, 2025)

System: 695427-040-R-J1-PDC complex spheroids, viability percent T/C
Assay: Anticancer human tumor 695427-040-R-J1-PDC patient-derived colon adenocarcinoma cell line growth inhibition [GQUAD]
Conditions: for IC50: curve of first compound; for viability, T/C: stronger effect = lower value
Description: DNA G-quadruplex Stabilizer Agents in Combinations in Complex Spheroids
A high-throughput screen of multi-cell type tumor spheroids was designed to identify active combinations of DNA G-quadruplex stabilizer agents and targeted small molecules. Complex spheroids include a stromal component modeled by human endothelial cells (HUVEC) and fibroblasts modeled by human mesenchymal stem cells (MSCs). The concentration ranges selected for each drug and investigational agent were based upon clinically achievable concentrations if the clinical Cmax of the agent was known.
Compounds. The drugs and investigational agents: pidnarulex (CX-5461; NSC782164), APTO-253 (NSC789042), BRACO-19 (NSC847499), peposertib (NSC802822), ceralasertib (NSC780249), elimusertib (NSC800525), camonsertib (NSC841442), AZD-1390 (NSC803789), olaparib (NSC753686), talazoparib (NSC767125), ART-558 (NSC835418), sotorasib (NSC818433), MRTX-1133 (NSC836407), SN-38 (NSC673596), topotecan (NSC609699), etoposide (NSC141540), doxorubicin (NSC123127), gemcitabine (NSC613327), 5-fluorouracil (NSC19893), paclitaxel (NSC125973), vemurafenib (NSC761431), panobinostat (NSC761190), R-306465 (JNJ-16241199; NSC773264), adavosertib (NSC754352), TP-3654 (NSC805149), carboplatin (NSC241240), KSQ-4279 (NSC840948), and staurosporine (NSC755774) were obtained from the National Cancer Institute (NCI) Developmental Therapeutics Program Chemical Repository (34). The FDA-approved anticancer drug set is available from the NCI Developmental Therapeutics Program. […] The stock solutions were prepared in dimethyl sulfoxide (DMSO, Sigma-Aldrich, St. Louis, MO, cat. D2650) at 800-fold the tested concentration and stored at -70 degrees C prior to their use. All drugs and investigational agents were tested over a range starting from a high concentration at or near the clinical Cmax and decreasing in half-log increments. If the clinical Cmax for an agent had not been determined, the highest concentration tested was 10 microM.
2.3 Cell Culture. All cells were maintained in an incubator at 37 degrees C and 5% CO2 with 95% humidity. The PDC lines were cultured according to standard operating procedures established by the NCI PDMR. All PDCs were thawed and cultured in Matrigel-coated flasks prepared with a working solution of 1X Ham's F-12 nutrient mix, without supplementation (Invitrogen, cat. 11765054), 100 U/mL penicillin-streptomycin (Invitrogen, cat. 15140122), and 2.5% Matrigel (Corning Inc., cat. 354248) for the first three passages. The 857933-349-R-J2-PDC line was cultured in 6C/Colon 1B media, which includes advanced DMEM/F-12 (Thermo Fisher Scientific, cat. 12634028), 10 mM HEPES (Thermo Fisher Scientific, cat. 15630080), 1X GlutaMAX supplement (Thermo Fisher Scientific, cat. 35050061), 0.1 mg/mL primocin (InvivoGen, cat. ant-pm-2), 10% defined fetal bovine serum, heat inactivated (HyClone Laboratories Inc., cat. SH30070.03HI), 50% L-WRN conditioned media (ATCC, cat. CRL-3276), 1.25 mM N-Acetyl-L-cysteine (Sigma-Aldrich, cat. A9165), 10 mM nicotinamide (Sigma-Aldrich, cat. N0636), 1X B-27 supplement (Thermo Fisher Scientific, cat. 17504044), 1X N-2 supplement (Thermo Fisher Scientific, cat. 17502048), 10 microM Y-27632 dihydrochloride (Tocris Bioscience, cat. 1254), and 50 ng/mL human EGF recombinant protein (Thermo Fisher Scientific, cat. PHG0311). The 485176-168-R4-J1-PDC line was cultured in Panc media, which includes all 6C/Colon 1B media components plus 100 ng/mL human FGF-10 (Thermo Fisher Scientific, cat. 100-26), 500 nM SB-431542 (Selleckchem, cat. S1067), and gastrin (Tocris, cat. 3006).
[…]

[1] = second compound 0.0316 µM, first compound 0.0316 µM
[2] = second compound 0.0316 µM, first compound 0.1 µM
[3] = second compound 0.0316 µM, first compound 0.316 µM
[4] = second compound 0.0316 µM, first compound 1 µM
[5] = second compound 0.0316 µM, first compound 3.16 µM
[6] = second compound 0.0316 µM, first compound 10 µM
[7] = second compound 0.1 µM, first compound 0.0316 µM
[8] = second compound 0.1 µM, first compound 0.1 µM
[9] = second compound 0.1 µM, first compound 0.316 µM
[10] = second compound 0.1 µM, first compound 1 µM
[11] = second compound 0.1 µM, first compound 3.16 µM
[12] = second compound 0.1 µM, first compound 10 µM
[13] = second compound 0.316 µM, first compound 0.0316 µM
[14] = second compound 0.316 µM, first compound 0.1 µM
[15] = second compound 0.316 µM, first compound 0.316 µM
[16] = second compound 0.316 µM, first compound 1 µM
[17] = second compound 0.316 µM, first compound 3.16 µM
[18] = second compound 0.316 µM, first compound 10 µM
[19] = second compound 1 µM, first compound 0.0316 µM
[20] = second compound 1 µM, first compound 0.1 µM
[21] = second compound 1 µM, first compound 0.316 µM
[22] = second compound 1 µM, first compound 1 µM
[23] = second compound 1 µM, first compound 3.16 µM
[24] = second compound 1 µM, first compound 10 µM
[25] = second compound 3.16 µM, first compound 0.0316 µM
[26] = second compound 3.16 µM, first compound 0.1 µM
[27] = second compound 3.16 µM, first compound 0.316 µM
[28] = second compound 3.16 µM, first compound 1 µM
[29] = second compound 3.16 µM, first compound 3.16 µM
[30] = second compound 3.16 µM, first compound 10 µM
[31] = second compound 10 µM, first compound 0.0316 µM
[32] = second compound 10 µM, first compound 0.1 µM
[33] = second compound 10 µM, first compound 0.316 µM
[34] = second compound 10 µM, first compound 1 µM
[35] = second compound 10 µM, first compound 3.16 µM
[36] = second compound 10 µM, first compound 10 µM
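Note: spheroids exposed to compounds for seven days before readout.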

What does the source list for `CC(=O)O[C@H]1C(=O)[C@@]2(C)[C@H]([C@H](OC(=O)c3ccccc3)[C@]3(O)C[C@H](OC(=O)[C@H](O)[C@@H](NC(=O)c4ccccc4)c4ccccc4)C(C)=C1C3(C)C)[C@]1(OC(C)=O)CO[C@@H]1C[C@@H]2O` + Cc1[nH]c2ccc(F)cc2c1-c1nc2c3cccnc3c3ncccc3c2[nH]1?
IC50 (second compound 0.0316 µM): 0.458 µM; IC50 (second compound 0.1 µM): 0.467 µM; IC50 (second compound 0.316 µM): 0.451 µM; IC50 (second compound 1 µM): 0.469 µM; IC50 (second compound 3.16 µM): 0.453 µM; IC50 (second compound 10 µM): 0.496 µM; viability, T/C [1]: 99.4%; viability, T/C [2]: 92.9%; viability, T/C [3]: 71.6%; viability, T/C [4]: 4.67%; viability, T/C [5]: 0.18%; viability, T/C [6]: 0.29%; viability, T/C [7]: 103%; viability, T/C [8]: 97.7%; viability, T/C [9]: 73.2%; viability, T/C [10]: 4.64%; viability, T/C [11]: 0.18%; viability, T/C [12]: 0.45%; viability, T/C [13]: 102%; viability, T/C [14]: 91.2%; viability, T/C [15]: 69.8%; viability, T/C [16]: 6.24%; viability, T/C [17]: 0.21%; viability, T/C [18]: 0.26%; viability, T/C [19]: 89.3%; viability, T/C [20]: 87%; viability, T/C [21]: 72.2%; viability, T/C [22]: 7.42%; viability, T/C [23]: 0.2%; viability, T/C [24]: 0.87%; viability, T/C [25]: 78.3%; viability, T/C [26]: 82.9%; viability, T/C [27]: 69.4%; viability, T/C [28]: 7.14%; viability, T/C [29]: 0.33%; viability, T/C [30]: 0.32%; viability, T/C [31]: 77.1%; viability, T/C [32]: 79.7%; viability, T/C [33]: 75.7%; viability, T/C [34]: 10%; viability, T/C [35]: 0.5%; viability, T/C [36]: 0.22%

How did the IC50 (second compound 0.0316 µM) turn out when `CC(C)(O)C1CCC(Nc2ccc3ncc(-c4cccc(C(F)(F)F)c4)n3n2)CC1` (stereo unspecified) + Cc1[nH]c2ccc(F)cc2c1-c1nc2c3cccnc3c3ncccc3c2[nH]1 was run?
Its IC50 is greater than 10 µM.

What about the IC50 (second compound 0.1 µM) of the same compound?
Its IC50 is greater than 10 µM.

And the IC50 (second compound 0.316 µM)?
Its IC50 is greater than 10 µM.

What about the IC50 (second compound 1 µM) of the same compound?
Its IC50 is greater than 10 µM.

What about the IC50 (second compound 3.16 µM) of the same compound?
The IC50 was greater than 10 µM.

What about the IC50 (second compound 10 µM) of the same compound?
The IC50 was greater than 10 µM.

What about the viability, T/C [1] of the same compound?
Its viability, T/C is 109%.

What about the viability, T/C [2] of the same compound?
Its viability, T/C is 99.1%.

What about the viability, T/C [3] of the same compound?
Its viability, T/C is 109%.

What about the viability, T/C [4] of the same compound?
Its viability, T/C is 95.6%.

What about the viability, T/C [5] of the same compound?
The viability, T/C was 99.8%.

And the viability, T/C [6]?
The viability, T/C was 82.5%.

And the viability, T/C [7]?
The viability, T/C was 110%.

And the viability, T/C [8]?
Its viability, T/C is 100%.

What about the viability, T/C [9] of the same compound?
The viability, T/C was 103%.

And the viability, T/C [10]?
The viability, T/C was 100%.

What about the viability, T/C [11] of the same compound?
The viability, T/C was 100%.

And the viability, T/C [12]?
Its viability, T/C is 81.9%.

And the viability, T/C [13]?
Its viability, T/C is 101%.

And the viability, T/C [14]?
Its viability, T/C is 102%.

And the viability, T/C [15]?
Its viability, T/C is 97.6%.

What about the viability, T/C [16] of the same compound?
Its viability, T/C is 93.2%.

What about the viability, T/C [17] of the same compound?
The viability, T/C was 99.7%.

What about the viability, T/C [18] of the same compound?
Its viability, T/C is 80.1%.

And the viability, T/C [19]?
The viability, T/C was 102%.

And the viability, T/C [20]?
Its viability, T/C is 89.4%.

And the viability, T/C [21]?
Its viability, T/C is 96.8%.

And the viability, T/C [22]?
Its viability, T/C is 87.6%.

What about the viability, T/C [23] of the same compound?
The viability, T/C was 91.4%.

And the viability, T/C [24]?
Its viability, T/C is 78%.

And the viability, T/C [25]?
The viability, T/C was 91.6%.

And the viability, T/C [26]?
Its viability, T/C is 86.9%.

And the viability, T/C [27]?
The viability, T/C was 76.4%.

What about the viability, T/C [28] of the same compound?
Its viability, T/C is 89.5%.

What about the viability, T/C [29] of the same compound?
The viability, T/C was 93.5%.

And the viability, T/C [30]?
Its viability, T/C is 62.5%.

What about the viability, T/C [31] of the same compound?
Its viability, T/C is 79%.

What about the viability, T/C [32] of the same compound?
The viability, T/C was 68.6%.

And the viability, T/C [33]?
Its viability, T/C is 81.7%.

What about the viability, T/C [34] of the same compound?
The viability, T/C was 80.5%.

What about the viability, T/C [35] of the same compound?
The viability, T/C was 80%.

What about the viability, T/C [36] of the same compound?
The viability, T/C was 67.3%.

What does the source list for `COc1cccc2c1C(=O)c1c(O)c3c(c(O)c1C2=O)CC(O)(C(=O)CO)CC3OC1CC(N)C(O)C(C)O1` (stereo unspecified) + Cc1[nH]c2ccc(F)cc2c1-c1nc2c3cccnc3c3ncccc3c2[nH]1?
IC50 (second compound 0.0316 µM): > 10 µM; IC50 (second compound 0.1 µM): > 10 µM; IC50 (second compound 0.316 µM): > 10 µM; IC50 (second compound 1 µM): > 10 µM; IC50 (second compound 3.16 µM): 4.85 µM; IC50 (second compound 10 µM): 5.56 µM; viability, T/C [1]: 98.6%; viability, T/C [2]: 88.4%; viability, T/C [3]: 96.9%; viability, T/C [4]: 87.1%; viability, T/C [5]: 60.6%; viability, T/C [6]: 50.7%; viability, T/C [7]: 104%; viability, T/C [8]: 98.8%; viability, T/C [9]: 91.3%; viability, T/C [10]: 71.9%; viability, T/C [11]: 74.4%; viability, T/C [12]: 48.9%; viability, T/C [13]: 95.2%; viability, T/C [14]: 77.9%; viability, T/C [15]: 87.1%; viability, T/C [16]: 73.8%; viability, T/C [17]: 71.5%; viability, T/C [18]: 49.6%; viability, T/C [19]: 83%; viability, T/C [20]: 92.4%; viability, T/C [21]: 78.8%; viability, T/C [22]: 72.5%; viability, T/C [23]: 71.2%; viability, T/C [24]: 49.6%; viability, T/C [25]: 59.6%; viability, T/C [26]: 86.8%; viability, T/C [27]: 70.4%; viability, T/C [28]: 59.4%; viability, T/C [29]: 56.8%; viability, T/C [30]: 42.5%; viability, T/C [31]: 65.9%; viability, T/C [32]: 80.1%; viability, T/C [33]: 65%; viability, T/C [34]: 70.9%; viability, T/C [35]: 62.2%; viability, T/C [36]: 37%
